This note sets out measurements from ChEMBL document CHEMBL1201862, “PubChem BioAssay data set” (2004).

Assay in all cases: NCI tumour cell line growth inhibition, 48 h
Test [1] has as its system A549.
Test [2] concerns LOX IMVI.
Test [3] has as its system RPMI-8226.
In test [4] the test system is PC-3.
For test [5], the system named is HL-60.
The test system of test [6] is SNB-19.
In test [7] the test system is EKVX.
Test [8] concerns SNB-75.
The subject of test [9] is RXF 393.
The test system of test [10] is 786-0.
Test [11] has as its system HOP-92.
The test system of test [12] is SK-OV-3.
Test [13] has as its system MDA-MB-435.
In test [14] the test system is NCI-H522.
Test [15] has as its system Malme-3M.
Test [16] deals with SW-620.
In test [17] the test system is OVCAR-5.
Test [18] concerns HCT-116.
The test system of test [19] is OVCAR-8.
Test [20] relates to HCC 2998.

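Where inhibition never reached the appropriate level, the endpoint shown equals the highest concentration tested. Otherwise, values were interpolated linearly from a five-concentration, 48-hour dose response in 96-well plates. Abbreviation: GI50, concentration required for 50% inhibition of growth.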 Active and inactive are the calls of the source. Rule as the data show it: active = GI50 up to about 1.1 µM and inactive = higher. Bounds are passed on as bounds.

`CC1(C)CCCOc2cccc(c2)OCCCC(C)(C)C1=O`: the GI50 in [1] was 31.7 µM (inactive); in test [2], 20.7 µM (inactive); in test [3] it was 26.7 µM (inactive); in test [4], 14.8 µM (inactive); in test [5], 18.1 µM (inactive); in test [6], 80.7 µM (inactive). Moreover, the GI50 was 37.3 µM (inactive) in [7]; 30.8 µM (inactive) in [8]; 17.7 µM (inactive) in test [9]; 41.5 µM (inactive) in test [10]; 23 µM (inactive) in test [11]; 33 µM (inactive) in [12]. The GI50 in test [13] was 34 µM (inactive); in [14], 13.3 µM (inactive); in test [15], 27.6 µM (inactive); in test [16], 27 µM (inactive); in test [17], > 100 µM (inactive); in test [18], 26.6 µM (inactive).

`O=c1[nH]nc(Cc2ccccc2)n1/N=C/c1ccc([N+](=O)[O-])cc1`: the GI50 in [1] was > 100 µM (inactive); in test [2], > 100 µM (inactive); in test [3], > 10 µM (inactive); in test [4], > 100 µM (inactive); in [5], > 100 µM (inactive); in test [7], > 100 µM (inactive). Also, the GI50 in test [19] was > 100 µM (inactive); in test [8], 42 µM (inactive); in test [9], > 100 µM (inactive); in test [10], > 100 µM (inactive); in [11] it was > 100 µM (inactive); in [13], > 100 µM (inactive). Also, the GI50 in test [14], in test [15], in [20], in test [16], in [17] and in [18] was > 100 µM (inactive) each time.

As to `COc1ccc(C(=O)Oc2c(C#N)sc3c2c(=O)n(-c2ccccc2)c(=S)n3-c2ccccc2)cc1`, the GI50 in [1] is 30.1 µM (inactive); in test [2], 19.5 µM (inactive); in [3], 25.2 µM (inactive); in test [4], 26.5 µM (inactive); in test [5] it was 22.2 µM (inactive); in test [6], 33.2 µM (inactive). The GI50 in [7] was 12.9 µM (inactive); in test [19], 24.7 µM (inactive); in test [8] it was > 100 µM (inactive); in test [9] it was 21.8 µM (inactive); in test [10], 44.1 µM (inactive); in [11] it was 23.6 µM (inactive). For the same compound, the GI50 in [12] is 33.9 µM (inactive); in test [13], 22.7 µM (inactive); in test [14], 0.131 µM (active); in test [20], 27.9 µM (inactive); in [16], 32.7 µM (inactive); in [17] it was 26.4 µM (inactive). Also, in [18], the GI50 is 18.1 µM (inactive).

As for `CCN1CCCCCCCCCC(=N/O)/C(=N\O)C1`, the GI50 in test [1], in test [2], in test [4], in test [5], in test [6] and in [7] was > 100 µM (inactive) throughout. The GI50 in test [19], in test [8], in [9], in [10], in test [11] and in test [13] was > 100 µM (inactive) each time. In addition, the GI50 in [14], in test [15], in test [16], in [17] and in [18] was > 100 µM (inactive) throughout.

Consider `COCCOCCOCCOc1ccc(C(C#N)N(CCc2ccccc2)C(=O)c2cc(C(=O)N(CCc3ccccc3)C(C#N)c3ccc(OCCOCCOCCOC)cc3)cc(C(=O)N(CCc3ccccc3)C(C#N)c3ccc(OCCOCCOCCOC)cc3)c2)cc1` (centres undefined), for which the GI50 in test [1], in test [2], in test [4], in [5], in test [6] and in [7] was > 100 µM (inactive) each time. For the same compound, the GI50 in test [19] was > 100 µM (inactive); in test [8] it was > 100 µM (inactive); in test [9], > 100 µM (inactive); in [10], > 100 µM (inactive); in test [11], 85.7 µM (inactive); in test [12] it was > 100 µM (inactive). The GI50 in test [13], in test [14], in test [15], in test [20], in [16] and in test [17] was > 100 µM (inactive) each time. Besides, the GI50 in test [18] is > 100 µM (inactive).

On to `CCCCCC(=O)OCC1(CO)C/C(=C\CC(C(C)C)C(C)C)C(=O)O1` (centres undefined), for which the GI50 is 76.9 µM (inactive) in test [1]; 27 µM (inactive) in test [2]; > 100 µM (inactive) in test [4]; > 100 µM (inactive) in test [6]; > 100 µM (inactive) in test [7]; 38.1 µM (inactive) in test [19]. Moreover, the GI50 in test [8] is 44.4 µM (inactive); in test [9], > 100 µM (inactive); in [10] it was 31.9 µM (inactive); in test [11] it was 93.3 µM (inactive); in test [12], > 100 µM (inactive); in test [13] it was > 100 µM (inactive). In addition, the GI50 was 21.9 µM (inactive) in test [14]; 15.3 µM (inactive) in test [15]; > 100 µM (inactive) in [20]; 24.4 µM (inactive) in [16]; > 100 µM (inactive) in test [17]; 45.7 µM (inactive) in test [18].

With `CN(Cc1cnc2nc(N)nc(N)c2n1)c1ccc(C(=O)NC(CCC(=O)O)C(=O)O)cc1` (centres undefined), the GI50 in test [1] was 0.0384 µM (active); in test [2] it was < 0.01 µM (active); in [3], < 0.0284 µM (active); in [4] it was 3.81 µM (inactive); in [5] it was < 0.01 µM (active); in test [6], 0.619 µM (active). The GI50 in test [19] was < 0.0448 µM (active); in [8] it was > 57 µM (inactive); in test [9] it was > 100 µM (inactive); in test [11] it was 25.4 µM (inactive); in test [12] it was 1.24 µM (inactive); in test [13], < 0.01 µM (active). The GI50 was 0.398 µM (active) in test [14]; 7.29 µM (inactive) in test [15]; 41.5 µM (inactive) in [20]; < 0.01 µM (active) in test [16]; > 100 µM (inactive) in test [17]; < 0.01 µM (active) in [18].

Take `CC[C@@]1(N(C)C)C(=O)OCc2c1cc1n(c2=O)Cc2cc3ccccc3nc2-1`: the GI50 in test [1] was 61 µM (inactive); in test [2] it was 17.1 µM (inactive); in test [3] it was 31.3 µM (inactive); in test [4], 58.3 µM (inactive); in test [6], 29.4 µM (inactive); in test [7], 45.9 µM (inactive). Further, the GI50 was 16.9 µM (inactive) in test [19]; 12.8 µM (inactive) in [8]; 13.7 µM (inactive) in test [9]; 25.8 µM (inactive) in [10]; 19.1 µM (inactive) in test [11]; 18.7 µM (inactive) in test [12]. For the same compound, the GI50 was > 100 µM (inactive) in [13]; 12.7 µM (inactive) in test [14]; 20.2 µM (inactive) in test [15]; 97.7 µM (inactive) in test [20]; 32.1 µM (inactive) in test [16]; > 100 µM (inactive) in test [17]. Moreover, the GI50 in test [18] is 33.1 µM (inactive).

Take `CC(=C(C(N)=O)C(N)=O)C1C=C(c2cccs2)CC(c2ccc(Cl)cc2)=C1O` (centres undefined): the GI50 in test [1] is 88.7 µM (inactive); in test [2], 19.8 µM (inactive); in [3], 20.4 µM (inactive); in test [4], 9.55 µM (inactive); in test [5], 9.59 µM (inactive); in test [6], 77.8 µM (inactive). Besides, the GI50 in [7] is > 100 µM (inactive); in [19], 73.6 µM (inactive); in test [8], 90.6 µM (inactive); in [9], > 100 µM (inactive); in test [10] it was 36.7 µM (inactive); in test [11] it was 85.9 µM (inactive). Moreover, the GI50 in test [12] was > 100 µM (inactive); in test [13], 42.2 µM (inactive); in test [14], 30.3 µM (inactive); in test [20] it was 34 µM (inactive); in [16], 82.8 µM (inactive); in test [17] it was > 100 µM (inactive). The GI50 in test [18] was 8.85 µM (inactive).

On to `CC1C(c2ccc(N(C)C)cc2)c2cc3c(cc2OC1N1CCCC1)OCO3` (centres undefined), for which the GI50 in [1] was 45.3 µM (inactive); in [2], 38.2 µM (inactive); in test [3] it was 36.1 µM (inactive); in test [4], 37.3 µM (inactive); in test [5], 28 µM (inactive); in test [6], 48.3 µM (inactive). Moreover, the GI50 in test [7] is 64.6 µM (inactive); in test [19], 70.3 µM (inactive); in test [8], > 34.4 µM (inactive); in [9] it was 22.9 µM (inactive); in test [10], 43 µM (inactive); in test [11] it was 6.25 µM (inactive). For the same compound, the GI50 in [13] is 16.6 µM (inactive); in [14], 29.5 µM (inactive); in [15], 40.7 µM (inactive); in test [20], 34.6 µM (inactive); in [16], 42 µM (inactive); in test [17], > 87.1 µM (inactive). Further, the GI50 in test [18] is 36.4 µM (inactive).
